Results taken from patent US9469665B2, “Compound having lysophosphatidylserine receptor function modulation activity” (THE UNIVERSITY OF TOKYO, priority 2013, dated 2016).

How the values were obtained:
Format in all cases: cell-based
mouse GPR174 = target: T1, mouse GPR174 (Mus musculus, UniProt Q3U507); assay: TGFα shedding assay, agonistic activity on GPR174; design: key: an activity that is 100 folds that of control compound 1 as +++++; an activity that is 10 folds that of control compound 1 as ++++; the activity of the control compound 1 (LPS18:1) as +++; an activity that is 1/10 as ++; an activity that is 1/100 as +; an activity below that as −; settings: HEK293 cells transfected with mouse GPR174 and AP labeled TGFα; activity relative to control compound 1 (LPS18:1) = +++
T1 construct: expressed in transfected cells; host or cells: HEK293
T1 sequence (Q3U507 whole entry): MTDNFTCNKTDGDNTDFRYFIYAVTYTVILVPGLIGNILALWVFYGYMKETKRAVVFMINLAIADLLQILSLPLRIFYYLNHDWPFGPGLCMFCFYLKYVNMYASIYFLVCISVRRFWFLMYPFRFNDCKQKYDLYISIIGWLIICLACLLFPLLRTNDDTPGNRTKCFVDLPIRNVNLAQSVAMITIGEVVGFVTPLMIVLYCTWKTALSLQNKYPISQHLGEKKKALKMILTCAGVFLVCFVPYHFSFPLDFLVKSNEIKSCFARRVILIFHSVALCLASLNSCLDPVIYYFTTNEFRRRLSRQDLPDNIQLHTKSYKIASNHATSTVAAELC
Procedure: (§1) [Test Example 1]Assay of Agonistic Activity by TGFα Shedding Assay
(§2) HEK293 cells were suspended in the Dulbecco's modified Eagle's medium (DMEM) containing 10% fetal bovine serum (FCS) to exist in an amount of 2.0×10^5 cells/mL, and they were seeded in 60 mm dishes at 4 mL per dish. Transfection of different expression vectors was performed using LipofectAMINE 2000 (Invitrogen) after 24 hours of culture under the presence of 5% CO2. For each 60 mm dish, 1 μg of AP labeled TGFα plasmid vectors were used, and 1 μg of pCAGGS plasmid vectors of mouse GPR34, P2Y10 or GPR174 were used. The plasmid vectors were prepared by methods disclosed in Patent Documents 2 and 5. Note that the AP labeled TGFα is a protein comprising a membrane-bound pro-TGFα whose N terminal end is fused with human placental alkaline phosphatase, and the plasmid vector of the AP labeled TGFα may be produced based on the teaching of Tokumaru et al., J Cell Biol 151, 209-220 (2000). After 24 hours of transfection, the cells were peeled off using trypsin/EDTA, and they were re-suspended in a culture medium to form an amount of 2.0×10^4 cells/well to be seeded to a 96-well plate. Hanks' Balanced Salt Solution (HBSS, containing 5 mM HEPES) was used for the re-suspended solution when stimulating with the compound. After it was left still for 30 min., subject compounds of various concentrations were added and the solutions were left still for another 1 hour under the presence of 5% CO2. The 96-well plate was subjected to centrifugation (190×g, 3 min.), then 80 μl of supernatant was transferred to a different 96-well plate. A reaction buffer (40 mM Tris-HCl (pH 9.5)) containing 10 mM p-nitrophenyl phosphate (p-NPP) was added in an amount of 80 μL to the supernatant and cells. The OD405 was measured with a micro plate reader (background), then after heating at 37° C. for an hour, OD405 was re-measured. The AP activity for each well was obtained by subtracting the background from the second absorbance and plugging the difference into the following formula.
(§3) In addition, the value obtained by subtracting the AP activity (%) of the non-stimulated group was used in the vertical axis to create a graph. The graphs of the test results for Example 3 (lysoPS sn-1-deoxy sn3 C3-ph-o-OBn-m-Oph) and Example 31 (lysoPS sn-1-OMe sn3 C3-ph-o-OBn-m-Oph) are shown in FIG. 1.
(§4) The obtained activity is shown by plotting the compound concentration and AP activity (%), then representing the activity of the control compound 1 (LPS18:1) as +++, an activity that is 10 folds that of control compound 1 as ++++, an activity that is 100 folds that of control compound 1 as +++++, an activity that is 1/10 as ++, and an activity that is 1/100 as +, and an activity below that as −.

mouse GPR34 = target: T2, mouse GPR34 (Mus musculus, UniProt Q9R1K6); assay: TGFα shedding assay, agonistic activity on GPR34; design: key to GPR34/LPS2 agonistic activity, TGFα shedding assay: an activity that is 100 folds that of control compound 1 as +++++; an activity that is 10 folds that of control compound 1 as ++++; the activity of the control compound 1 (LPS18:1) as +++; an activity that is 1/10 as ++; an activity that is 1/100 as +; an activity below that as −; settings: for GPR34/LPS2 agonistic activity, TGFα shedding assay: HEK293 cells transfected with mouse GPR34 and AP labeled TGFα, activity relative to control compound 1 (LPS18:1) = +++
T2 construct: expressed in transfected cells; host or cells: HEK293
T2 sequence (Q9R1K6 whole entry): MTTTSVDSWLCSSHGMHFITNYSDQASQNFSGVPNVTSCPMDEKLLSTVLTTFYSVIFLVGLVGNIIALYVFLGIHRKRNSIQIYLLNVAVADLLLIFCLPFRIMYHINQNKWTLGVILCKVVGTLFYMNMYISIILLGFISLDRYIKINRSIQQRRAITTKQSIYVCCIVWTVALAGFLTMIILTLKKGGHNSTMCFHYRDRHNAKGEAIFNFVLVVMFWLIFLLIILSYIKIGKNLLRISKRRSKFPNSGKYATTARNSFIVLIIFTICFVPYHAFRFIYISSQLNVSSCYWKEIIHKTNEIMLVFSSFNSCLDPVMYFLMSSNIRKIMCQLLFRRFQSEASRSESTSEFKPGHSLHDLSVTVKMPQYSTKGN
Procedure: as §1, §2, §3, §4

mouse P2Y10 = target: T3, mouse P2Y10 (Mus musculus, UniProt Q8BFU7); assay: TGFα shedding assay, agonistic activity on P2Y10; design: key: an activity that is 100 folds that of control compound 1 as +++++; an activity that is 10 folds that of control compound 1 as ++++; the activity of the control compound 1 (LPS18:1) as +++; an activity that is 1/10 as ++; an activity that is 1/100 as +; an activity below that as −; settings: HEK293 cells transfected with mouse P2Y10 and AP labeled TGFα; activity relative to control compound 1 (LPS18:1) = +++
T3 construct: expressed in transfected cells; host or cells: HEK293
T3 sequence (Q8BFU7 whole entry): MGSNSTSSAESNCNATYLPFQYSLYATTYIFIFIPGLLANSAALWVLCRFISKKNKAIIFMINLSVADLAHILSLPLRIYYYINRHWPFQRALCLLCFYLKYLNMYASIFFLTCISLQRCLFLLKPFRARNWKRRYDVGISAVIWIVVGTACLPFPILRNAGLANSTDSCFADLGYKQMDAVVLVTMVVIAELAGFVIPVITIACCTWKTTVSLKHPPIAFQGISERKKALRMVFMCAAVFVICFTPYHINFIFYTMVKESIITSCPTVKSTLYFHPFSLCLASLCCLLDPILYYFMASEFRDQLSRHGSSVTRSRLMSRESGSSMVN
Procedure: as §1, §2, §3, §4

Row | SMILES | GPR174/LPS3 agonistic activity, TGFα shedding assay (mouse GPR174) | GPR34/LPS2 agonistic activity, TGFα shedding assay (mouse GPR34) | P2Y10/LPS2 agonistic activity, TGFα shedding assay (mouse P2Y10) | receptor selectivity of agonist activity among GPR34, P2Y10, GPR174 (graphs of FIG. 1) (mouse GPR34; TGFα shedding assay, HEK293 cells, AP activity (%) vs concentration)
1 | C[C@H](COC(=O)CCc1ccccc1OCc1cccc(Oc2ccccc2)c1)OP(=O)(O)OC[C@H](N)C(=O)O [Example 3, (2S)-2-amino-3-[hydroxyl-((1R)-1-methyl-2-{3-[2-(3-phenoxy-benzyloxy)-phenyl]-propionyloxy}-ethoxy)-phosphoryloxy]-propionic acid] | − | +++++ | ++ | agonists having selectivity against GPR34
2 | N[C@@H](COP(=O)(O)O[C@H]1CCCO[C@@H]1COC(=O)CCc1ccccc1OCc1cccc(Oc2ccccc2)c1)C(=O)O [Example 22, (2S)-2-amino-3-[hydroxyl-((2R,3S)-2-{3-[2-(3-phenoxy-benzyloxy)-phenyl]-propionyloxymethyl}-tetrahydropyran-3-yloxy)-phosphoryloxy]-propionic acid] | − | +++ | − | 
3 | CCCCCCCCCCCOc1ccccc1CCC(=O)O[C@H]1COCC[C@@H]1OP(=O)(O)OC[C@H](N)C(=O)O [Example 11, (2S)-2-amino-3-(hydroxy-{(3S,4S)-3-[3-(2-undecyloxy-phenyl)-propionyloxy]-tetrahydro-pyran-4-yloxy}-phosphoryloxy)-propionic acid] | − | − | ++ | 
4 | CCCCCCCCCCCOc1ccccc1CCC(=O)O[C@@H]1CCOC[C@H]1OP(=O)(O)OC[C@H](N)C(=O)O [Example 8, (2S)-2-amino-3-((3R,4R)-hydroxy-{4-[3-(2-undecyloxy-phenyl)-propionyloxy]-tetrahydro-pyran-3-yloxy}-phosphoryloxy)-propionic acid] | − | +++~++++ | +++ | 
5 | CCCCCCCCCCCOc1ccccc1CCC(=O)OC[C@H]1OCC=C[C@H]1OP(=O)(O)OC[C@H](N)C(=O)O [Example 25, (2S)-2-amino-3-(hydroxy-{(2R,3R)-2-[3-(2-undecyloxy-phenyl)-propionyloxymethyl]-3,6-dihydro-2H-pyran-3-yloxy}-phosphoryloxy)-propionic acid] | − | +~++ | +++~++++ | 
6 | N[C@@H](COP(=O)(O)OC[C@H]1OCCC[C@H]1OC(=O)CCc1ccccc1OCc1cccc(Oc2ccccc2)c1)C(=O)O [Example 18] | − | ++++~+++++ | − | 
7 | N[C@@H](COP(=O)(O)O[C@H]1C=CCO[C@@H]1COC(=O)CCc1ccccc1OCc1cccc(Oc2ccccc2)c1)C(=O)O [Example 24, (2S)-2-amino-3-[hydroxy-((2R,3S)-2-{3-[2-(3-phenoxy-benzyloxy)-phenyl]-propionyloxymethyl}-3,6-dihydro-2H-pyran-3-yloxy)-phosphoryloxy]-propionic acid] | − | +++ | ++~+++ | 
8 | N[C@@H](COP(=O)(O)O[C@@H]1CCCO[C@@H]1COC(=O)CCc1ccccc1OCc1cccc(Oc2ccccc2)c1)C(=O)O [Example 17] | − | ++++ | − | 

More lines, main results first:

Row | GPR174/LPS3 agonistic activity, TGFα shedding assay (mouse GPR174) | GPR34/LPS2 agonistic activity, TGFα shedding assay (mouse GPR34) | P2Y10/LPS2 agonistic activity, TGFα shedding assay (mouse P2Y10) | SMILES | receptor selectivity of agonist activity among GPR34, P2Y10, GPR174 (graphs of FIG. 1) (mouse GPR34; TGFα shedding assay, HEK293 cells, AP activity (%) vs concentration)
9 | − | +++~++++ | + | CCCCCCCC/C=C\CCCCCCCC(=O)OC[C@H]1OCCC[C@@H]1OP(=O)(O)OC[C@H](N)C(=O)O [Example 20, (9Z)-Octadeca-9-enoic acid (2R,3S)-3-[((2S)-2-amino-2-carboxy-ethoxy)-hydroxy-phosphoryloxy]-tetrahydro-pyran-2-ylmethyl ester] | 
10 | − | − | + | CCCCCCCCCCCOc1ccccc1CCC(=O)O[C@H]1CCCO[C@@H]1COP(=O)(O)OC[C@H](N)C(=O)O [Example 14, (2S)-2-amino-3-(hydroxy-{(2R,3S)-3-[3-(2-undecyloxy-phenyl)-propionyloxy]-tetrahydro-pyran-2-ylmethoxy}-phosphoryloxy)-propionic acid] | 
11 | − | ++ | − | CCCCCCCC/C=C\CCCCCCCC(=O)OC[C@H]1OCCC[C@H]1OP(=O)(O)OC[C@H](N)C(=O)O [Example 15, (9Z)-Octadeca-9-enoic acid (2R,3R)-3-[((2S)-2-amino-2-carboxy-ethoxy)-hydroxy-phosphoryloxy]-tetrahydropyran-2-ylmethyl ester] | 
12 | − | ++ | − | CCCCCCCC/C=C\CCCCCCCC(=O)OC[C@@H](COCc1ccccc1)OP(=O)(O)OC[C@H](N)C(=O)O [Example 7, (9Z)-Octadeca-9-enoic acid (2R)-2-[((2S)-2-amino-2-carboxy-ethoxy)-hydroxy-phosphoryloxy]-3-benzyloxy-propyl ester] | 
13 | − | +++++ | + | CCCCCCCC/C=C\CCCCCCCC(=O)OC[C@@H](COCC)OP(=O)(O)OC[C@H](N)C(=O)O [Example 6, (9Z)-Octadeca-9-enoic acid (2R)-2-[((2S)-2-amino-2-carboxy-ethoxy)-hydroxy-phosphoryloxy]-3-ethoxypropyl ester] | 
14 | − | ++ | + | CCCCCCCC/C=C\CCCCCCCC(=O)OC[C@H](COC)OP(=O)(O)OC[C@H](N)C(=O)O [Example 5, (9Z)-Octadeca-9-enoic acid (2S)-2-[((2S)-2-amino-2-carboxy-ethoxy)-hydroxy-phosphoryloxy]-3-methoxy-propyl ester] | 
15 | − | ++++ | + | CCCCCCCC/C=C\CCCCCCCC(=O)OC[C@@H](COC)OP(=O)(O)OC[C@H](N)C(=O)O [Example 4, (9Z)-Octadeca-9-enoic acid (2R)-2-[((2S)-2-amino-2-carboxy-ethoxy)-hydroxy-phosphoryloxy]-3-methoxy-propyl ester] | 
16 | +~++ | +++ | ++~+++ | CCCCCCCC/C=C\CCCCCCCC(=O)OC[C@H](C)OP(=O)(O)OC[C@H](N)C(=O)O [Example 2, (9Z)-Octadeca-9-enoic acid (2S)-2-[((2S)-2-amino-2-carboxy-ethoxy)-hydroxy-phosphoryloxy]-propyl ester] | 
